Test results as given in patent US20060252807A1, “Novel ortho-terphenyl inhibitors of p38 kinase and methods of treating inflammatory disorders” (Kalypsys, Inc., priority 2005, published 2006).

What follows are molecules tested against T1, active p38 alpha enzyme (Upstate Biotechnology) (Homo sapiens, UniProt Q16539) (assay: p38α biochemical assay (ATP turnover, luminescent detection, Cambrex PKlight)). Conditions: p38α biochemical assay, Table 1 Biological Activity.
T1 construct: purchased Upstate Biotechnology
How it was run: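 In this kinase reaction, p38α used MapkapK2 as phosphorylation substrate at low ATP (1.4 uM final) over 2 hours at 30C, and activity was followed as ATP turnover by luminescence.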

T1 sequence (Q16539 whole entry): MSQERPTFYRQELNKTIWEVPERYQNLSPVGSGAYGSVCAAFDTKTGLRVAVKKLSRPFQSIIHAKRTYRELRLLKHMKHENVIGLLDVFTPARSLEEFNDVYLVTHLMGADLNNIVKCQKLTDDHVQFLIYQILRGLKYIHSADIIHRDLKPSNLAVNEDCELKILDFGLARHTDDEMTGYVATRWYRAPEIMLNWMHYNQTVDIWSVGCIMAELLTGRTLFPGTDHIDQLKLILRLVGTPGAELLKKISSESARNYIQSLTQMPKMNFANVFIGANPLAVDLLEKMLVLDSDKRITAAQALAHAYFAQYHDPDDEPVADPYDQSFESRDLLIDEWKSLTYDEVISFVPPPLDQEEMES

SMILES	IC50 [nM]
COc1ccc(C(=O)N2CCN(Cc3nc(-c4ccc(F)cc4)c(-c4nc(C(=O)NC(C)C)cs4)o3)CC2)c(OC)c1OC [Example 523]	≤ 1000
CC(C)NC(=O)c1csc(-c2oc(CN3CCN(C(=O)C(O)CCl)CC3)nc2-c2ccc(F)cc2)n1 (centres unmarked) [Example 352]	> 1000
COc1ccccc1/C=C/C(=O)NCc1nc(-c2ccc(F)cc2)c(-c2nc(C(=O)NC(C)C)cs2)o1 [Example 205]	> 1000
CC(C)NC(=O)c1csc(-c2oc(CN3CCN(C(=O)c4cccc(O)c4O)CC3)nc2-c2ccc(F)cc2)n1 [Example 384]	≤ 1000
CC(C)NC(=O)c1csc(-c2oc(CN3CCN(C(=O)c4c(F)c(F)c(F)c(F)c4F)CC3)nc2-c2ccc(F)cc2)n1 [Example 519]	≤ 1000
Cc1cccc(CCC(=O)N2CCN(Cc3nc(-c4ccc(F)cc4)c(-c4nc(C(=O)NC(C)C)cs4)o3)CC2)c1 [Example 410]	≤ 1000
CC(C)NC(=O)c1csc(-c2oc(CNC(=O)C3CCc4ccccc4C3)nc2-c2ccc(F)cc2)n1 (centres unmarked) [Example 204]	> 1000
CC(C)NC(=O)c1csc(-c2oc(CN3CCN(C(=O)c4cccc(F)c4F)CC3)nc2-c2ccc(F)cc2)n1 [Example 395]	> 1000
COc1cc(Cl)ccc1C(=O)N1CCN(Cc2nc(-c3ccc(F)cc3)c(-c3nc(C(=O)NC(C)C)cs3)o2)CC1 [Example 476]	> 1000
CC(C)NC(=O)c1csc(-c2oc(CN3CCN(C(=O)C(F)(F)F)CC3)nc2-c2ccc(F)cc2)n1 [Example 345]	≤ 1000
CC(C)NC(=O)c1csc(-c2c(-c3ccc(F)cc3)noc2CNC(=O)c2cccnc2)n1 [Example 587]	> 1000
COc1cc(Cl)ccc1C(=O)NCc1onc(-c2ccc(F)cc2)c1-c1nc(C(=O)NC(C)C)cs1 [Example 714]	> 1000
COc1cc(C(=O)N2CCN(Cc3nc(-c4ccc(F)cc4)c(-c4nc(C(=O)NC(C)C)cs4)o3)CC2)c([N+](=O)[O-])cc1OC [Example 544]	> 1000
CC(C)NC(=O)c1csc(-c2oc(CN3CCN(C(=O)c4ccc(N(C)C=O)cc4)CC3)nc2-c2ccc(F)cc2)n1 [Example 447]	≤ 1000
Cc1c(C(=O)NCc2nc(-c3ccc(F)cc3)c(-c3nc(C(=O)NC(C)C)cs3)o2)cccc1[N+](=O)[O-] [Example 223]	> 1000
CC(C)NC(=O)c1csc(-c2c(-c3ccc(F)cc3)noc2CNC(=O)c2cccc(Br)n2)n1 [Example 751]	> 1000
Cc1ccc(O)c(C(=O)N2CCN(Cc3nc(-c4ccc(F)cc4)c(-c4nc(C(=O)NC(C)C)cs4)o3)CC2)c1 [Example 382]	≤ 1000
COc1ccc([N+](=O)[O-])c(C(=O)N2CCN(Cc3nc(-c4ccc(F)cc4)c(-c4nc(C(=O)NC(C)C)cs4)o3)CC2)c1 [Example 502]	> 1000
CC(C)NC(=O)c1csc(-c2oc(CN3CCN(C(=O)c4ccc(Cl)cc4[N+](=O)[O-])CC3)nc2-c2ccc(F)cc2)n1 [Example 510]	> 1000
COc1ccc(C(=O)NCc2nc(-c3ccc(F)cc3)c(-c3nc(C(=O)NC(C)C)cs3)o2)c(OC)c1OC [Example 286]	> 1000
Cc1ccc([N+](=O)[O-])c(C(=O)NCc2nc(-c3ccc(F)cc3)c(-c3nc(C(=O)NC(C)C)cs3)o2)c1 [Example 222]	≤ 1000
Cc1ccc(C(=O)NCc2nc(-c3ccc(F)cc3)c(-c3nc(C(=O)NC(C)C)cs3)o2)cc1F [Example 149]	> 1000
Cc1ccc(C(=O)NCc2onc(-c3ccc(F)cc3)c2-c2nc(C(=O)NC(C)C)cs2)cc1Br [Example 768]	> 1000
CC(C)NC(=O)c1csc(-c2oc(CNC(=O)c3ccc(F)c(F)c3)nc2-c2ccc(F)cc2)n1 [Example 161]	> 1000
O=C(O)c1csc(-c2c(-c3ccc(F)cc3)n[nH]c2C2CCNCC2)n1 [Example 70, 2-(3-(4-fluorophenyl)-5-(piperidin-4-yl)-1H-pyrazol-4-yl)thiazole-4-carboxylic acid]	> 1000
CCN(CC)c1ccc(C(=O)NCc2onc(-c3ccc(F)cc3)c2-c2nc(C(=O)NC(C)C)cs2)cc1 [Example 735]	> 1000
Cc1ccc(C(=O)CCC(=O)NCc2nc(-c3ccc(F)cc3)c(-c3nc(C(=O)NC(C)C)cs3)o2)cc1 [Example 256]	> 1000

Same assay, conditions: p38α kinase; Table 1 Biological Activity

SMILES	IC50 [nM]
COc1cccc(NCc2nc(-c3ccc(F)cc3)c(-c3nc(C(=O)NC(C)C)cs3)o2)c1 [Example 1324]	> 1000
CC(C)NC(=O)c1csc(-c2c(-c3ccc(F)cc3)noc2CNCCO)n1 [Example 1375]	> 1000
CC(C)NC(=O)c1csc(-c2c(-c3ccc(F)cc3)noc2CNC(C)CO)n1 (centres unmarked) [Example 1396]	> 1000
CC(C)NC(=O)c1csc(-c2oc(CN(C)Cc3ccccc3)nc2-c2ccc(F)cc2)n1 [Example 1217]	> 1000
CC(C)NC(=O)c1csc(-c2c(-c3ccc(F)cc3)noc2CN2CCN(c3ccc(O)cc3)CC2)n1 [Example 1577]	> 1000
CC(C)NC(=O)c1csc(-c2oc(CN3CCN(c4ccc(F)cc4F)CC3)nc2-c2ccc(F)cc2)n1 [Example 1276]	> 1000
CC(C)NC(=O)c1csc(-c2oc(CNc3ccccc3COc3ccccc3)nc2-c2ccc(F)cc2)n1 [Example 1369]	> 1000
Cc1nc(-c2ccc(F)cc2)c(-c2nc(C(=O)NCCc3ccccc3F)cs2)s1 [Example 1783]	≤ 1000
Cc1ccc(CNC(=O)c2csc(-c3sc(C)nc3-c3ccc(F)cc3)n2)cc1 [Example 1756]	≤ 1000
O=C(NCc1ccc(C(F)(F)F)cc1)c1csc(-c2c(-c3ccc(F)cc3)n[nH]c2C2CCNCC2)n1 [Example 2143]	> 1000
CC(C)NC(=O)c1csc(-c2oc(CN3CCC(N(C)C(=O)OC(C)(C)C)C3)nc2-c2ccc(F)cc2)n1 (centres unmarked) [Example 1279]	> 1000
Cc1nc(-c2ccc(F)cc2)c(-c2nc(C(=O)N3CCN(c4ccccc4F)CC3)cs2)s1 [Example 1904]	> 1000
O=C(NCc1ccncc1)c1csc(-c2c(-c3ccc(F)cc3)n[nH]c2C2CCNCC2)n1 [Example 2064]	≤ 1000
CCC(C)CNC(=O)c1csc(-c2sc(C)nc2-c2ccc(F)cc2)n1 (centres unmarked) [Example 1723]	> 1000
Cc1cccc(C(=O)N2CCC(c3[nH]nc(-c4ccc(F)cc4)c3-c3nc(C(=O)NC(C)C)cs3)CC2)c1O [Example 856]	> 1000
Cc1nc(-c2ccc(F)cc2)c(-c2nc(C(=O)N3CCN(CCN4CCOCC4)CC3)cs2)s1 [Example 1929]	> 1000
COc1cccc(CNC(=O)c2csc(-c3c(-c4ccc(F)cc4)n[nH]c3C3CCNCC3)n2)c1 [Example 2103]	> 1000
CC(C)NC(=O)c1csc(-c2oc(CNCCCn3ccnc3)nc2-c2ccc(F)cc2)n1 [Example 1106]	> 1000
CC(C)NC(=O)c1csc(-c2c(-c3ccc(F)cc3)n[nH]c2C2CCN(C(=O)C3CN(C(=O)OC(C)(C)C)CCN3)CC2)n1 (centres unmarked) [Example 1028]	> 1000
CC(C)NC(=O)c1csc(-c2c(-c3ccc(F)cc3)n[nH]c2C2CCN(C(=O)c3ccc(F)cc3Cl)CC2)n1 [Example 913]	> 1000
Cc1ccc(NCc2onc(-c3ccc(F)cc3)c2-c2nc(C(=O)NC(C)C)cs2)cc1C [Example 1641]	> 1000

SMILES	IC50 [nM]
Cc1ccc(NC(=O)c2csc(-c3sc(C)nc3-c3ccc(F)cc3)n2)cc1 [Example 1957]	> 1000
Cc1nc(-c2ccc(F)cc2)c(-c2nc(C(=O)N3CCN(c4ccc(C(C)(C)C)cc4)CC3)cs2)s1 [Example 1944]	> 1000
CC(C)NC(=O)c1csc(-c2c(-c3ccc(F)cc3)noc2CNC2CC(C)(C)NC(C)(C)C2)n1 [Example 1481]	> 1000
CCC(C)C(NC(=O)OC(C)(C)C)C(=O)N1CCC(c2[nH]nc(-c3ccc(F)cc3)c2-c2nc(C(=O)NC(C)C)cs2)CC1 (centres unmarked) [Example 1042]	> 1000
CCOc1ccc2ccccc2c1C(=O)N1CCC(c2[nH]nc(-c3ccc(F)cc3)c2-c2nc(C(=O)NC(C)C)cs2)CC1 [Example 1011]	> 1000
O=C(NCc1ccc(F)c(F)c1)c1csc(-c2c(-c3ccc(F)cc3)n[nH]c2C2CCNCC2)n1 [Example 2112]	> 1000
Cc1nc(-c2ccc(F)cc2)c(-c2nc(C(=O)N3CCC(C)CC3)cs2)s1 [Example 1848]	> 1000
COc1ccc(NCc2onc(-c3ccc(F)cc3)c2-c2nc(C(=O)NC(C)C)cs2)c(C)c1 [Example 1663]	> 1000
O=C(NN1CCOCC1)c1csc(-c2c(-c3ccc(F)cc3)n[nH]c2C2CCNCC2)n1 [Example 2060]	> 1000
Cc1cccc(N2CCN(Cc3onc(-c4ccc(F)cc4)c3-c3nc(C(=O)NC(C)C)cs3)CC2)c1C [Example 1588]	> 1000
CC(C)NC(=O)c1csc(-c2c(-c3ccc(F)cc3)noc2CNC(=O)C(Cc2ccc(O)cc2)NC(=O)OC(C)(C)C)n1 (centres unmarked) [Example 809]	> 1000
O=C(NCCc1ccccc1)c1csc(-c2c(-c3ccc(F)cc3)n[nH]c2C2CCNCC2)n1 [Example 2076]	> 1000
CC(C)NC(=O)c1csc(-c2oc(CNC(C)Cc3ccncc3)nc2-c2ccc(F)cc2)n1 (centres unmarked) [Example 1121]	> 1000
CC(C)NC(=O)c1csc(-c2c(-c3ccc(F)cc3)noc2CNCc2ccc(Cl)cc2)n1 [Example 1463]	> 1000
Cc1nc(-c2ccc(F)cc2)c(-c2nc(C(=O)NC(C)CC(C)C)cs2)s1 (centres unmarked) [Example 1735]	> 1000
CC(C)NC(=O)c1csc(-c2c(-c3ccc(F)cc3)noc2CN2CCN(c3ccc(F)cc3F)CC2)n1 [Example 1602]	> 1000
CC(C)NC(=O)c1csc(-c2c(-c3ccc(F)cc3)n[nH]c2C2CCN(C(=O)c3ccc(Oc4cccc(O)c4)cc3)CC2)n1 [Example 1026]	> 1000
CC(C)NC(=O)c1csc(-c2oc(CNCc3ccc(Cl)cc3Cl)nc2-c2ccc(F)cc2)n1 [Example 1169]	> 1000
CC(C)NC(=O)c1csc(-c2oc(CNC3CCN(Cc4ccccc4)C3)nc2-c2ccc(F)cc2)n1 (centres unmarked) [Example 1170]	≤ 1000
Cc1nc(-c2ccc(F)cc2)c(-c2nc(C(=O)N3CCN(c4ccc(Cl)cc4)CC3)cs2)s1 [Example 1925]	> 1000
